Results: PubChem BioAssay (NCI)
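96-well plates; 48 h exposure; 5 concentrations. Endpoints by linear interpolation between flanking doses. Not reached: highest tested concentration assigned. Definition used: TGI = concentration required for complete inhibition of growth.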

Experiments:
Experiment in all cases: inhibition of tumour cell growth, NCI panel, 48 h
SN12C renal = system: SN12C renal
786-0 renal = system: 786-0 renal
HOP-62 NSCLC = system: HOP-62 NSCLC
MALME-3M melanoma = system: MALME-3M melanoma
U251 CNS = system: U251 CNS
M19-MEL melanoma = system: M19-MEL melanoma
OVCAR-8 ovarian = system: OVCAR-8 ovarian
NCI-H460 lung = system: NCI-H460 lung
SW-620 colon = system: SW-620 colon
SNB-75 CNS = system: SNB-75 CNS
SK-MEL-5 melanoma = system: SK-MEL-5 melanoma
RPMI-8226 leukemia = system: RPMI-8226 leukemia
DMS 114 small cell lung = system: DMS 114 small cell lung
IGROV1 ovarian = system: IGROV1 ovarian
MOLT-4 leukemia = system: MOLT-4 leukemia
UACC-62 melanoma = system: UACC-62 melanoma
EKVX NSCLC = system: EKVX NSCLC
M14 melanoma = system: M14 melanoma
SR leukemia = system: SR leukemia
SK-MEL-2 melanoma = system: SK-MEL-2 melanoma
SF-539 CNS = system: SF-539 CNS
A549 NSCLC = system: A549 NSCLC
LXFL 529 NSCLC = system: LXFL 529 NSCLC
SK-MEL-28 melanoma = system: SK-MEL-28 melanoma
OVCAR-3 ovarian = system: OVCAR-3 ovarian
UO-31 renal = system: UO-31 renal
COLO 205 colon = system: COLO 205 colon
OVCAR-5 ovarian = system: OVCAR-5 ovarian
KM20L2 colon = system: KM20L2 colon
TK-10 renal = system: TK-10 renal
KM12 colon = system: KM12 colon
DLD-1 colon = system: DLD-1 colon
SNB-78 CNS = system: SNB-78 CNS
HCT-15 colon = system: HCT-15 colon
DMS 273 small cell lung = system: DMS 273 small cell lung
NCI-H23 lung = system: NCI-H23 lung
A498 renal = system: A498 renal
HL-60(TB) leukemia = system: HL-60(TB) leukemia
LOX IMVI melanoma = system: LOX IMVI melanoma
CAKI-1 renal = system: CAKI-1 renal
HCT-116 colon = system: HCT-116 colon
ACHN renal = system: ACHN renal
NCI-H226 lung = system: NCI-H226 lung
K-562 leukemia = system: K-562 leukemia
HCC-2998 colon = system: HCC-2998 colon
SK-OV-3 ovarian = system: SK-OV-3 ovarian
SNB-19 CNS = system: SNB-19 CNS
XF 498 CNS = system: XF 498 CNS
UACC-257 melanoma = system: UACC-257 melanoma
CCRF-CEM leukemia = system: CCRF-CEM leukemia
OVCAR-4 ovarian = system: OVCAR-4 ovarian
NCI-H522 lung = system: NCI-H522 lung
SF-268 CNS = system: SF-268 CNS
RXF-631 renal = system: RXF-631 renal
HT29 colon = system: HT29 colon
HOP-18 NSCLC = system: HOP-18 NSCLC
SF-295 CNS = system: SF-295 CNS
RXF 393 renal = system: RXF 393 renal
HOP-92 NSCLC = system: HOP-92 NSCLC

Measured: TGI

Cc1cc2ncn(-c3nc4ccccc4nc3C(C#N)S(C)(=O)=O)c2cc1C (stereo unspecified)
not listed: RXF-631 renal | HT29 colon | HOP-18 NSCLC | SF-295 CNS | RXF 393 renal | HOP-92 NSCLC
> 100 µM: all other assays above

O=C(O/N=C1\CCCC\C1=C/c1ccccc1)c1ccc([N+](=O)[O-])cc1
not listed: SK-MEL-5 melanoma | IGROV1 ovarian | TK-10 renal | KM12 colon | A498 renal | SNB-19 CNS | XF 498 CNS | UACC-257 melanoma
> 100 µM: all other assays above

COCC(C)(C)N=CN1Cc2cc3ccccc3nc2C1
not listed: LXFL 529 NSCLC | OVCAR-5 ovarian | SNB-78 CNS | DMS 273 small cell lung | A498 renal | LOX IMVI melanoma | HCC-2998 colon | RXF-631 renal
> 100 µM: all other assays above

CCCCC1=CSC(c2ccccc2)=C(c2ccccc2)S1
60.9 µM: HOP-92 NSCLC
not listed: HOP-62 NSCLC | MALME-3M melanoma | SR leukemia | SK-MEL-2 melanoma | OVCAR-5 ovarian | HL-60(TB) leukemia | CAKI-1 renal | ACHN renal | XF 498 CNS | UACC-257 melanoma | NCI-H522 lung | SF-268 CNS | RXF 393 renal
> 100 µM: all other assays above
